Laboratory results reported in the NIST ThermoML archive (doi:10.1016/j.jct.2006.05.008).
± gives the expanded uncertainty stated by the source.

Experiment: molar heat capacity at constant pressure
Details: 101.33 kPa, Small (less than 1 g) adiabatic calorimetry

CCCCn1cc[n+](C)c1.[Br-] [1-butyl-3-methylimidazolium bromide]
Details | molar heat capacity at constant pressure [J/K/mol]
5 K, Crystal | 0.594 ± 0.036
5.112 K, Crystal | 0.6398 ± 0.033
5.416 K, Glass | 1.391 ± 0.048
5.455 K, Crystal | 0.7976 ± 0.035
5.698 K, Glass | 1.608 ± 0.044
5.764 K, Crystal | 0.9598 ± 0.039
6.014 K, Glass | 1.871 ± 0.055
6.078 K, Crystal | 1.144 ± 0.042
6.368 K, Glass | 2.187 ± 0.061
6.428 K, Crystal | 1.37 ± 0.046
6.758 K, Glass | 2.559 ± 0.068
6.809 K, Crystal | 1.648 ± 0.044
7.151 K, Glass | 2.969 ± 0.075
7.192 K, Crystal | 1.957 ± 0.057
7.546 K, Glass | 3.418 ± 0.081
7.578 K, Crystal | 2.288 ± 0.061
7.943 K, Glass | 3.889 ± 0.088
7.966 K, Crystal | 2.656 ± 0.068
8.343 K, Glass | 4.396 ± 0.096
8.356 K, Crystal | 3.052 ± 0.075
8.743 K, Glass | 4.921 ± 0.1
8.747 K, Crystal | 3.473 ± 0.081
9.141 K, Crystal | 3.927 ± 0.088
9.142 K, Glass | 5.507 ± 0.11
9.535 K, Crystal | 4.4 ± 0.094
9.542 K, Glass | 6.116 ± 0.12
9.931 K, Crystal | 4.904 ± 0.1
9.941 K, Glass | 6.777 ± 0.13
10 K, Crystal | 5 ± 0.1
10.43 K, Crystal | 5.581 ± 0.11
10.45 K, Glass | 7.669 ± 0.15
11.04 K, Crystal | 6.447 ± 0.12
11.06 K, Glass | 8.866 ± 0.16
11.65 K, Crystal | 7.367 ± 0.14
11.68 K, Glass | 9.609 ± 0.17
12.26 K, Crystal | 8.338 ± 0.15
12.33 K, Glass | 10.33 ± 0.18
12.88 K, Crystal | 9.361 ± 0.16
12.97 K, Glass | 11.38 ± 0.19
13.49 K, Crystal | 10.43 ± 0.18
13.59 K, Glass | 12.45 ± 0.2
14.11 K, Crystal | 11.52 ± 0.19
14.22 K, Glass | 13.57 ± 0.22
14.73 K, Crystal | 12.65 ± 0.2
14.85 K, Glass | 14.68 ± 0.23
15 K, Crystal | 13.15 ± 0.21
15.46 K, Crystal | 14.04 ± 0.22
15.59 K, Glass | 16.03 ± 0.24
16.3 K, Crystal | 15.65 ± 0.23
16.44 K, Glass | 17.61 ± 0.26
17.14 K, Crystal | 17.33 ± 0.25
17.29 K, Glass | 19.2 ± 0.27
17.98 K, Crystal | 19.01 ± 0.27
18.14 K, Glass | 20.83 ± 0.29
18.82 K, Crystal | 20.74 ± 0.28
18.99 K, Glass | 22.44 ± 0.3
19.66 K, Crystal | 22.48 ± 0.3
19.84 K, Glass | 24.05 ± 0.31
20 K, Crystal | 23.22 ± 0.3
20.8 K, Crystal | 24.92 ± 0.31
20.98 K, Glass | 26.32 ± 0.33
22.23 K, Crystal | 27.96 ± 0.33
22.44 K, Glass | 29.08 ± 0.34
23.67 K, Crystal | 30.95 ± 0.35
23.89 K, Glass | 31.88 ± 0.35
25 K, Crystal | 33.71 ± 0.36
25.11 K, Crystal | 33.93 ± 0.36
25.34 K, Glass | 34.61 ± 0.36
26.55 K, Crystal | 36.89 ± 0.37
26.79 K, Glass | 37.3 ± 0.37
28 K, Crystal | 39.85 ± 0.37
28.25 K, Glass | 39.98 ± 0.37
29.46 K, Crystal | 42.71 ± 0.37
29.71 K, Glass | 42.64 ± 0.37
30 K, Crystal | 43.79 ± 0.32
30.91 K, Crystal | 45.58 ± 0.33
31.17 K, Glass | 45.28 ± 0.33
32.37 K, Crystal | 48.31 ± 0.34
32.64 K, Glass | 47.85 ± 0.34
33.83 K, Crystal | 50.92 ± 0.36
34.1 K, Glass | 50.34 ± 0.35
35 K, Crystal | 52.97 ± 0.37
35.29 K, Crystal | 53.48 ± 0.37
35.56 K, Glass | 52.74 ± 0.37
36.75 K, Crystal | 55.93 ± 0.38
37.02 K, Glass | 55.06 ± 0.38
38.21 K, Crystal | 58.33 ± 0.39
38.48 K, Glass | 57.36 ± 0.39
39.67 K, Crystal | 60.64 ± 0.41
39.95 K, Glass | 59.57 ± 0.4
40 K, Crystal | 61.09 ± 0.41
41.38 K, Crystal | 63.18 ± 0.42
41.66 K, Glass | 62.09 ± 0.41
43.35 K, Crystal | 66.08 ± 0.43
43.62 K, Glass | 64.96 ± 0.43
45 K, Crystal | 68.34 ± 0.44
45.33 K, Crystal | 68.81 ± 0.44
45.59 K, Glass | 67.7 ± 0.44
47.31 K, Crystal | 71.45 ± 0.46
47.56 K, Glass | 70.47 ± 0.45
49.28 K, Crystal | 73.96 ± 0.47
49.53 K, Glass | 73.04 ± 0.47
50 K, Crystal | 74.81 ± 0.47
51.25 K, Crystal | 76.33 ± 0.48
51.5 K, Glass | 75.54 ± 0.48
53.22 K, Crystal | 78.7 ± 0.49
53.47 K, Glass | 77.99 ± 0.49
55.2 K, Crystal | 80.87 ± 0.5
55.43 K, Glass | 80.39 ± 0.5
57.18 K, Crystal | 82.96 ± 0.51
57.4 K, Glass | 82.69 ± 0.51
59.15 K, Crystal | 84.96 ± 0.53
59.37 K, Glass | 85.02 ± 0.53
60 K, Crystal | 85.89 ± 0.5
61.12 K, Crystal | 87.04 ± 0.53
61.34 K, Glass | 87.33 ± 0.54
63.1 K, Crystal | 89.03 ± 0.55
63.31 K, Glass | 89.56 ± 0.55
65.08 K, Crystal | 90.98 ± 0.55
65.29 K, Glass | 91.73 ± 0.56
67.06 K, Crystal | 92.73 ± 0.56
67.27 K, Glass | 93.78 ± 0.57
69.04 K, Crystal | 94.46 ± 0.57
69.25 K, Glass | 95.85 ± 0.58
70 K, Crystal | 95.2 ± 0.58
71.02 K, Crystal | 96.12 ± 0.58
71.23 K, Glass | 97.82 ± 0.59
73.01 K, Crystal | 97.71 ± 0.59
73.21 K, Glass | 99.78 ± 0.6
75 K, Crystal | 99.35 ± 0.6
75.2 K, Glass | 101.73 ± 0.61
76.99 K, Crystal | 101.08 ± 0.6
77.19 K, Glass | 103.84 ± 0.62
78.99 K, Crystal | 102.78 ± 0.61
79.19 K, Glass | 105.86 ± 0.63
79.88 K, Crystal | 103.13 ± 0.62
80 K, Crystal | 103.3 ± 0.58
80.98 K, Crystal | 104.4 ± 0.62
81.18 K, Glass | 107.71 ± 0.64
81.99 K, Glass | 108.36 ± 0.64
82.98 K, Crystal | 105.64 ± 0.63
83.34 K, Crystal | 105.95 ± 0.63
84.53 K, Glass | 110.36 ± 0.65
84.99 K, Crystal | 106.91 ± 0.64
85.34 K, Crystal | 107.22 ± 0.64
86.53 K, Glass | 112.03 ± 0.66
87.34 K, Crystal | 108.66 ± 0.64
88.52 K, Glass | 113.8 ± 0.67
89.34 K, Crystal | 110.09 ± 0.65
90 K, Crystal | 110.5 ± 0.67
90.52 K, Glass | 115.58 ± 0.66
91.34 K, Crystal | 111.54 ± 0.65
92.52 K, Glass | 117.14 ± 0.67
93.34 K, Crystal | 112.75 ± 0.65
94.51 K, Glass | 118.71 ± 0.67
95.34 K, Crystal | 114.08 ± 0.66
96.52 K, Glass | 120.45 ± 0.68
97.35 K, Crystal | 115.46 ± 0.66
98.52 K, Glass | 121.83 ± 0.69
99.35 K, Crystal | 116.72 ± 0.67
100 K, Crystal | 117.1 ± 0.67
100.53 K, Glass | 123.29 ± 0.69
101.36 K, Crystal | 118.12 ± 0.67
102.54 K, Glass | 125.09 ± 0.7
103.37 K, Crystal | 119.58 ± 0.68
104.55 K, Glass | 126.48 ± 0.71
105.39 K, Crystal | 120.44 ± 0.68
106.56 K, Glass | 127.9 ± 0.71
107.41 K, Crystal | 121.58 ± 0.69
108.57 K, Glass | 129.45 ± 0.72
109.43 K, Crystal | 122.78 ± 0.69
110 K, Crystal | 123.1 ± 0.67
110.59 K, Glass | 130.89 ± 0.72
111.44 K, Crystal | 123.99 ± 0.7
112.61 K, Glass | 132.26 ± 0.73
113.47 K, Crystal | 125.16 ± 0.7
114.64 K, Glass | 133.7 ± 0.73
115.5 K, Crystal | 126.62 ± 0.71
116.67 K, Glass | 135.05 ± 0.74
117.53 K, Crystal | 127.63 ± 0.7
118.69 K, Glass | 136.36 ± 0.75
119.57 K, Crystal | 128.57 ± 0.71
120 K, Crystal | 128.8 ± 0.75
120.72 K, Glass | 137.61 ± 0.75
121.6 K, Crystal | 129.71 ± 0.72
